Measured values taken from US20250304596A1, “PYRAZINE DERIVATIVES AND USES THEREOF” (FOGHORN THERAPEUTICS INC., priority 2022, published 2025).

Key:
HiBit-BRM fusion protein = target: T1, HiBit-BRM fusion protein (Homo sapiens, UniProt P51531); test: HiBiT-BRM cell-based degradation assay (Nano-Glo HiBiT Lytic Detection, 24 h); conditions: stable HeLa cell line expressing HiBiT-BRM; for DC50: read-out: BRM HiBit Degradation IC50
T1 construct: expressed in transfected cells
In short: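 Luminescence from LgBiT complementation after lysis measured HiBiT-BRM levels in stably expressing HeLa cells. Compounds were dosed at up to 30 μM final, in 3-fold 10-point dilutions, for 24 h. Percent degradation was scaled between DMSO wells and wells treated with 2 μM standard BRM/BRG1 degrader.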

[1] = target: T2, HiBit-BRG1 fusion protein (Homo sapiens, UniProt P51532); test: HiBiT-BRG1 cell-based degradation assay (Nano-Glo HiBiT Lytic Detection, 24 h); conditions: stable HeLa cell line expressing HiBit-BRG1 and LgBit; for Dmax: read-out: BRG1 HiBit Degradation Maximum (%); for DC50: read-out: BRMG1 HiBit Degradation IC50
T2 construct: expressed in transfected cells
In short: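 Degradation read by lytic NanoBiT luminescence after 24 h compound exposure of a stable HiBit-BRG1/LgBit HeLa line. Ten-point, 3-fold series in duplicate, top final dose 30 μM; DMSO and 2 μM standard degrader define 0% and 100% degradation.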

T2 sequence (P51532 whole entry, the tested form may be a part): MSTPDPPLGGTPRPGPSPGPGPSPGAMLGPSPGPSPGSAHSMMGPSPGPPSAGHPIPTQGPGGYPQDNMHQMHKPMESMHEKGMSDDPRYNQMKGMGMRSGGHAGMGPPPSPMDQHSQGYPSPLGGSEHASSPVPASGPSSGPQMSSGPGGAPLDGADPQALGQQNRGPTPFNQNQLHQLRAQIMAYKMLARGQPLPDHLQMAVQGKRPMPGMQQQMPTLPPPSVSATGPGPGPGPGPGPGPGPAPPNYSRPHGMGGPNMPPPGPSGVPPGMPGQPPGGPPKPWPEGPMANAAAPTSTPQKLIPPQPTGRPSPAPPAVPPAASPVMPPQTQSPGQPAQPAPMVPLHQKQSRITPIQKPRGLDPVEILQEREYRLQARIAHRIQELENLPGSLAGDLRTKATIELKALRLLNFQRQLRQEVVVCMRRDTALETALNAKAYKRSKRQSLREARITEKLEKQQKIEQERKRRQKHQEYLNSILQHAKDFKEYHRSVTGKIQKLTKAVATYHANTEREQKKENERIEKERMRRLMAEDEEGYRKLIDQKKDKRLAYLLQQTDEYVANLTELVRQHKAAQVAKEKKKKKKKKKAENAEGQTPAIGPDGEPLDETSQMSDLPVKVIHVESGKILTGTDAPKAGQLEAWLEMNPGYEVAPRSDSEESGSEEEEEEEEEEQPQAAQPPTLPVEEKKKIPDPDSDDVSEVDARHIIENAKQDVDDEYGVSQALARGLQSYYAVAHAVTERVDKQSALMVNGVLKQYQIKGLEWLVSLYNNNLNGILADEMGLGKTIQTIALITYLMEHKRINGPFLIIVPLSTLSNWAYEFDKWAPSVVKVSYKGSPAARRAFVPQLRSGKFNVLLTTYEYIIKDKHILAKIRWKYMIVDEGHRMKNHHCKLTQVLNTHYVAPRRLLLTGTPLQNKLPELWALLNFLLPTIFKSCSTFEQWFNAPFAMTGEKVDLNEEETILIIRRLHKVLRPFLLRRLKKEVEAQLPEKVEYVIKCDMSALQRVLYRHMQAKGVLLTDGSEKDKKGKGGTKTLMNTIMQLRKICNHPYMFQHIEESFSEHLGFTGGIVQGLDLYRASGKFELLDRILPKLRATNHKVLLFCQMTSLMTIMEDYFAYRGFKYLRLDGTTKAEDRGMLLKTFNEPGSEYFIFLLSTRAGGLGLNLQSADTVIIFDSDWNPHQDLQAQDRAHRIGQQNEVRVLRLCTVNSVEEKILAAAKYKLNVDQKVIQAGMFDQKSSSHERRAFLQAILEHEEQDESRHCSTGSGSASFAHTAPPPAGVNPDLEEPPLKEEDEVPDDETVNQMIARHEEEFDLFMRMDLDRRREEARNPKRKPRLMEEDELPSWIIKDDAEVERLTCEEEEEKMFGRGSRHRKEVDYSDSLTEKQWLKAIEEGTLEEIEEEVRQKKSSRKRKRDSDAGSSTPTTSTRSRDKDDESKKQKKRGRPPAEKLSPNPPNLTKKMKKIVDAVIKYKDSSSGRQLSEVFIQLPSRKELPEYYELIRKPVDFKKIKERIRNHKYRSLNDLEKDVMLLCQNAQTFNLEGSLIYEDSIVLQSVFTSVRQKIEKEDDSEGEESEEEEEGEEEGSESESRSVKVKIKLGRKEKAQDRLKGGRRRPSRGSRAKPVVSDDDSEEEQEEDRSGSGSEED
T1 sequence (P51531 whole entry, the tested form may be a part): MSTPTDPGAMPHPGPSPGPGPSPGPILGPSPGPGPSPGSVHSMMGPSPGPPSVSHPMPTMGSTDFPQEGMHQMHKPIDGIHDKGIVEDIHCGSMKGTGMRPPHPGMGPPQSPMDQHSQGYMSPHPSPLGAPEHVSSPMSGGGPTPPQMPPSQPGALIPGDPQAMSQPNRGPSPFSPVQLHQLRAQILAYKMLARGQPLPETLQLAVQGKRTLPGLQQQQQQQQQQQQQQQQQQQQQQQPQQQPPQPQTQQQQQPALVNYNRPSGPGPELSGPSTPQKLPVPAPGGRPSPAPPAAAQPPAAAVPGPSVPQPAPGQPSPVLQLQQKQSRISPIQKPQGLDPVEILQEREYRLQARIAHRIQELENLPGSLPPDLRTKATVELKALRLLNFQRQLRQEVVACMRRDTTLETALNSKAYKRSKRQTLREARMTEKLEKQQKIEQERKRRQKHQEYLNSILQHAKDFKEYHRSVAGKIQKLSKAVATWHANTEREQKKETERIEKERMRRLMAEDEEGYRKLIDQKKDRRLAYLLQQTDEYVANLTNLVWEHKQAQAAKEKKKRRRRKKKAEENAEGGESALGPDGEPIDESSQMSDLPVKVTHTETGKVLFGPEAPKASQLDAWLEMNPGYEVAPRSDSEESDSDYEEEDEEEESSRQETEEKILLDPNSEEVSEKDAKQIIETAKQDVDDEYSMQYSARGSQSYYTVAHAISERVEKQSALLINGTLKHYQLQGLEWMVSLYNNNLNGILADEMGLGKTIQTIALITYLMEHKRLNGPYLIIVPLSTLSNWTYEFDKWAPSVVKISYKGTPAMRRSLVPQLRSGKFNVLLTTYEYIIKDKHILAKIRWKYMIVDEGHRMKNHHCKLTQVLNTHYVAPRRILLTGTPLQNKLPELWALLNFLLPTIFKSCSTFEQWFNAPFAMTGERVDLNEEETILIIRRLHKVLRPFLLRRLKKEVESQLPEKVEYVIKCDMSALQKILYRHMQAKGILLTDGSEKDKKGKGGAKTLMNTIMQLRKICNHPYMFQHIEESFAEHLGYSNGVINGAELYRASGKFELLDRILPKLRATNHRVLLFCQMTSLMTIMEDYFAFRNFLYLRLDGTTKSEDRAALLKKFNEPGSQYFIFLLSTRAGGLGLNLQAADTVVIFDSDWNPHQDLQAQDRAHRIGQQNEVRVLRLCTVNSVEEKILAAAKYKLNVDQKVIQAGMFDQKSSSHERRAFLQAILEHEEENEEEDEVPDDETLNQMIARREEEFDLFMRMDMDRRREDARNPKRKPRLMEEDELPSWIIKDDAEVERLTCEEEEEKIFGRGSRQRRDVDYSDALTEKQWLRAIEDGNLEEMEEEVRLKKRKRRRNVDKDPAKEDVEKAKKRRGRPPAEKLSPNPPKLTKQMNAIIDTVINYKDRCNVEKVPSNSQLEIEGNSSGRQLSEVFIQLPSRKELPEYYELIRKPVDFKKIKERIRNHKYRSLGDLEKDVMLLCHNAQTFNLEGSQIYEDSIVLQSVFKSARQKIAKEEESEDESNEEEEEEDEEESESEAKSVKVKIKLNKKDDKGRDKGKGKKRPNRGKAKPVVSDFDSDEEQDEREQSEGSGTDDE

Compound | BRM HiBit Degradation Maximum (%) (HiBit-BRM fusion protein) | DC50 (HiBit-BRM fusion protein) [nM] | Dmax [1] [%] | DC50 [1] [nM]
Cc1ncsc1-c1ccc([C@H](C)NC(=O)[C@@H]2C[C@@H](O)CN2C(=O)[C@@H](c2cc(-c3ccc(N4CCC(c5sc6nnc(-c7ccccc7O)cc6c5C)CC4)cc3F)no2)C(C)C)cc1 [Compound 4, (2S,4R)-1-((R)-2-(3-(2-fluoro-4-(4-(3-(2-hydroxyphenyl)-5-methylthieno[2,3-c]pyridazin-6-yl)piperidin-1-yl)phenyl)isoxazol-5-yl)-3-methylbutanoyl)-4-hydroxy-N-((S)-1-(4-(4-methylthiazol-5-yl)phenyl)ethyl)pyrrolidine-2-carboxamide] | A (“A” indicates maximum degradation ≥75%) | < 10 | < 50 | > 1000
Cc1ncsc1-c1ccc([C@H](C)NC(=O)[C@@H]2C[C@@H](O)CN2C(=O)[C@@H](c2cc(N3CC[C@H](c4sc5nnc(-c6ccccc6O)cc5c4C)C3)no2)C(C)C)cc1 [Compound 78, (2S,4R)-4-hydroxy-1-((R)-2-(3-((S)-3-(3-(2-hydroxyphenyl)-5-methylthieno[2,3-c]pyridazin-6-yl)pyrrolidin-1-yl)isoxazol-5-yl)-3-methylbutanoyl)-N-((S)-1-(4-(4-methylthiazol-5-yl)phenyl)ethyl)pyrrolidine-2-carboxamide] | A (“A” indicates maximum degradation ≥75%) | < 10 | > 50 | > 10
Cc1cc(-c2cc([C@H](C(=O)N3C[C@H](O)C[C@H]3C(=O)N[C@@H](C)c3ccc(-c4scnc4C)cc3)C(C)C)on2)cnc1N1CCC(c2cc3cc(-c4ccccc4O)nnc3s2)CC1 (single isomer, unassigned) [Compound 2] | A (“A” indicates maximum degradation ≥75%) | > 10 | < 50 | > 1000
Cc1ncsc1-c1ccc([C@H](C)NC(=O)[C@@H]2C[C@@H](O)CN2C(=O)[C@@H](c2cc(C3CCN(c4ncc(-c5sc6nnc(-c7ccccc7O)cc6c5C)cn4)CC3)no2)C(C)C)cc1 [Compound 32, (2S,4R)-4-hydroxy-1-((R)-2-(3-(1-(5-(3-(2-hydroxyphenyl)-5-methylthieno[2,3-c]pyridazin-6-yl)pyrimidin-2-yl)piperidin-4-yl)isoxazol-5-yl)-3-methylbutanoyl)-N-((S)-1-(4-(4-methylthiazol-5-yl)phenyl)ethyl)pyrrolidine-2-carboxamide] | C (“C” indicates maximum degradation <50%) | > 1000 | < 50 | > 1000
Cc1nc(N2CCC(c3sc4nnc(-c5ccccc5O)cc4c3C)CC2)ccc1-c1noc(C(C(=O)N2C[C@H](O)C[C@H]2C(=O)N[C@@H](C)c2ccc(-c3scnc3C)cc2)C(C)C)c1Cl (stereo in doubt) [Compound 21, (2S,4R)-1-((S)-2-(4-chloro-3-(6-(4-(3-(2-hydroxyphenyl)-5-methylthieno[2,3-c]pyridazin-6-yl)piperidin-1-yl)-2-methylpyridin-3-yl)isoxazol-5-yl)-3-methylbutanoyl)-4-hydroxy-N-((S)-1-(4-(4-methylthiazol-5-yl)phenyl)ethyl)pyrrolidine-2-carboxamide] | A (“A” indicates maximum degradation ≥75%) | > 10 | > 50 | > 100
Cc1cc(N2CC[C@@H](c3sc4nnc(-c5ccccc5O)cc4c3C)C2)ncc1-c1cc([C@H](C(=O)N2C[C@H](O)C[C@H]2C(=O)N[C@@H](C)c2ccc(-c3scnc3C)cc2)C(C)C)on1 [Compound 96, (2S,4R)-4-hydroxy-1-((R)-2-(3-(6-((R)-3-(3-(2-hydroxyphenyl)-5-methylthieno[2,3-c]pyridazin-6-yl)pyrrolidin-1-yl)-4-methylpyridin-3-yl)isoxazol-5-yl)-3-methylbutanoyl)-N-((S)-1-(4-(4-methylthiazol-5-yl)phenyl)ethyl)pyrrolidine-2-carboxamide] | B (“B” indicates maximum degradation ≥50%) | > 10 | < 50 | 
Cc1ncsc1-c1ccc([C@H](C)NC(=O)[C@@H]2C[C@@H](O)CN2C(=O)[C@@H](c2cc(N3CCC(c4sc5nnc(-c6ccccc6O)cc5c4C)CC3)no2)C(C)C)cc1 [Compound 56, (2S,4R)-4-hydroxy-1-((R)-2-(3-(4-(3-(2-hydroxyphenyl)-5-methylthieno[2,3-c]pyridazin-6-yl)piperidin-1-yl)isoxazol-5-yl)-3-methylbutanoyl)-N-((S)-1-(4-(4-methylthiazol-5-yl)phenyl)ethyl)pyrrolidine-2-carboxamide] | B (“B” indicates maximum degradation ≥50%) | > 10 | < 50 | > 1000
Cc1ncsc1-c1ccc([C@H](C)NC(=O)[C@@H]2C[C@@H](O)CN2C(=O)[C@@H](c2cc(-c3cnc(N4C[C@H]5C[C@@H](C4)[C@@H]5c4cc5cc(-c6ccccc6O)nnc5s4)nc3)no2)C(C)C)cc1 [Compound 18, (2S,4R)-4-hydroxy-1-((R)-2-(3-(2-((1R,5S,6R)-6-(3-(2-hydroxyphenyl)thieno[2,3-c]pyridazin-6-yl)-3-azabicyclo[3.1.1]heptan-3-yl)pyrimidin-5-yl)isoxazol-5-yl)-3-methylbutanoyl)-N-((S)-1-(4-(4-methylthiazol-5-yl)phenyl)ethyl)pyrrolidine-2-carboxamide] | A (“A” indicates maximum degradation ≥75%) | < 10 | < 50 | > 1000
Cc1ncsc1-c1ccc([C@H](C)NC(=O)[C@@H]2C[C@@H](O)CN2C(=O)[C@@H](c2cc(-c3cnc(N4CC[C@@H](c5cc6nnc(-c7ccccc7O)cc6s5)C4)nc3)no2)C(C)C)cc1 [Compound 82, (2S,4R)-4-hydroxy-1-((R)-2-(3-(2-((R)-3-(3-(2-hydroxyphenyl)thieno[3,2-c]pyridazin-6-yl)pyrrolidin-1-yl)pyrimidin-5-yl)isoxazol-5-yl)-3-methylbutanoyl)-N-((S)-1-(4-(4-methylthiazol-5-yl)phenyl)ethyl)pyrrolidine-2-carboxamide] | A (“A” indicates maximum degradation ≥75%) | < 10 | > 50 | > 10
Cc1ncsc1-c1ccc([C@H](C)NC(=O)[C@@H]2C[C@@H](O)CN2C(=O)[C@@H](c2cc(-c3ccc(N4CCC(c5cc6cc(-c7ccccc7O)nnc6s5)CC4)nc3)no2)C(C)C)cc1 [Compound 39, (2S,4R)-4-hydroxy-1-((R)-2-(3-(6-(4-(3-(2-hydroxyphenyl)thieno[2,3-c]pyridazin-6-yl)piperidin-1-yl)pyridin-3-yl)isoxazol-5-yl)-3-methylbutanoyl)-N-((S)-1-(4-(4-methylthiazol-5-yl)phenyl)ethyl)pyrrolidine-2-carboxamide] | A (“A” indicates maximum degradation ≥75%) | > 10 | < 50 | > 1000
Cc1cc(N2CCC(c3sc4nnc(-c5ccccc5O)cc4c3C)CC2)ncc1-c1cc([C@H](C(=O)N2C[C@H](O)C[C@H]2C(=O)N[C@@H](C)c2ccc(-c3scnc3C)cc2)C(C)C)on1 [Compound 38, (2S,4R)-4-hydroxy-1-((R)-2-(3-(6-(4-(3-(2-hydroxyphenyl)-5-methylthieno[2,3-c]pyridazin-6-yl)piperidin-1-yl)-4-methylpyridin-3-yl)isoxazol-5-yl)-3-methylbutanoyl)-N-((S)-1-(4-(4-methylthiazol-5-yl)phenyl)ethyl)pyrrolidine-2-carboxamide] | A (“A” indicates maximum degradation ≥75%) | < 10 | < 50 | > 1000
Cc1ncsc1-c1ccc([C@H](C)NC(=O)[C@@H]2C[C@@H](O)CN2C(=O)[C@@H](c2cc(-c3ccnc(N4CCC(c5sc6nnc(-c7ccccc7O)cc6c5C)CC4)n3)no2)C(C)C)cc1 [Compound 58, (2S,4R)-4-hydroxy-1-((R)-2-(3-(2-(4-(3-(2-hydroxyphenyl)-5-methylthieno[2,3-c]pyridazin-6-yl)piperidin-1-yl)pyrimidin-4-yl)isoxazol-5-yl)-3-methylbutanoyl)-N-((S)-1-(4-(4-methylthiazol-5-yl)phenyl)ethyl)pyrrolidine-2-carboxamide] | A (“A” indicates maximum degradation ≥75%) | < 10 | > 75 | > 10
COc1cc(-c2cc([C@H](C(=O)N3C[C@H](O)C[C@H]3C(=O)N[C@@H](C)c3ccc(-c4scnc4C)cc3)C(C)C)on2)cnc1N1CCC(c2sc3nnc(-c4ccccc4O)cc3c2C)CC1 [Compound 90, (2S,4R)-4-hydroxy-1-((R)-2-(3-(6-(4-(3-(2-hydroxyphenyl)-5-methylthieno[2,3-c]pyridazin-6-yl)piperidin-1-yl)-5-methoxypyridin-3-yl)isoxazol-5-yl)-3-methylbutanoyl)-N-((S)-1-(4-(4-methylthiazol-5-yl)phenyl)ethyl)pyrrolidine-2-carboxamide] | A (“A” indicates maximum degradation ≥75%) | < 10 | < 50 | 
Cc1ncsc1-c1ccc([C@H](C)NC(=O)[C@@H]2C[C@@H](O)CN2C(=O)C(c2cc(N3CC4(C3)CN(c3cc5nnc(-c6ccccc6O)cc5s3)C4)no2)C(C)C)cc1 (stereo partly drawn) [Compound 67, (2S,4R)-4-hydroxy-1-(2-(3-(6-(3-(2-hydroxyphenyl)thieno[3,2-c]pyridazin-6-yl)-2,6-diazaspiro[3.3]heptan-2-yl)isoxazol-5-yl)-3-methylbutanoyl)-N-((S)-1-(4-(4-methylthiazol-5-yl)phenyl)ethyl)pyrrolidine-2-carboxamide] | A (“A” indicates maximum degradation ≥75%) | < 10 | < 50 | 
